From patent publication US20170087113A1, “METHODS FOR TREATING UREA CYCLE DISORDERS TO PREVENT HYPERAMMONEMIC CRISES BY CONTROLLING BLOOD AMMONIA LEVELS” (HORIZON THERAPEUTICS, LLC, priority 2014, published 2017)

System: UCD patients
Test: Occurrence of hyperammonemic crises (HAC): 12 months pre-enrollment on NaPBA versus 12-month GPB treatment (studies HPN-100-005, -007, -012)
Type: in vivo, human
Source text: Data from four short-term switchover (SO) studies and three 12-month safety extension (SE) studies in adult and pediatric UCD patients were included in the analyses; all have been previously described. […] Most patients completing these protocols plus additional patients (a total of 100 of whom 49 were pediatric) were enrolled into safety extension studies and received GPB for 12 months (Diaz 2013), (Mokhatarani 2013), (Berry 2014).
All protocols and informed consents were reviewed and approved by the Investigational Review Board of each participating institution prior to initiation. […] In all studies, patients received GPB three times daily (or more frequently in small children to match their prior NaPBA schedule) at a daily dose equivalent to their previously prescribed NaPBA dose. […] Fasting ammonia and glutamine levels were analyzed as a predictor of HACs during long-term treatment.
During the 12 month studies, blood samples for ammonia and glutamine analyses were collected monthly and information on HACs was recorded. […] Ammonia and glutamine concentrations were measured by an accredited hospital laboratory at each study site and ammonia values were normalized to a standard range of 9 to 35 μmol/L.
Data for 100 UCD subjects from three clinical trials (HPN-100-005, HPN-100-007, and HPN-100-012) were analyzed to evaluate the correlation between fasting ammonia levels and HAC (Table 1). Patients were treated for 12 months with GPB during the study. There was an almost equal split in the number of subjects who were adults (51%) and children (49%), defined as age<18 years at the time of enrollment. In this population, 30 patients had experienced a total of 54 HACs in the 12 months prior to the study and 19 patients experienced a total of 27 HACs during the study (Table 1). Baseline ammonia was defined as the subject's fasting ammonia level taken either at month zero or at the screening visit depending on which study the subject was enrolled in and whether the subject was enrolled in previous studies.

[1] = all patients N=100, pre-study (NaPBA) or during study (GPB)
[2] = study 005, N=17, pre-study (NaPBA) or during study (GPB)
[3] = study 007, N=60, pre-study (NaPBA) or during study (GPB)
[4] = study 012, N=23, pre-study (NaPBA) or during study (GPB)
[5] = subjects ages 6 years or higher, total N=77, pre-study (NaPBA) or study (GPB)

sodium phenylbutyrate [NaPBA]
12-month incidence of HAC (adult (≧18 years)): 0.832 | Proportion of patients who experienced an HAC (adult (≧18 years)): 17.7% | # of HA events (total no. of HAC) (all patients N=100, 12 months pre-study (NaPBA) or during study (GPB)): 54 | N with ≧1 HA events (number of patients with HAC) [1]: 30 | Proportion of patients who experienced an HAC [1]: 30.0% | 12-month incidence of HAC (female): 0.712 | Proportion of patients who experienced an HAC (female): 23.9% | 12-month incidence of HAC (male): 0.516 | Proportion of patients who experienced an HAC (male): 42.4% | 12-month incidence of HAC (non-white): 0.660 | Proportion of patients who experienced an HAC (non-white): 36.8% | 12-month incidence of HAC (pediatric (<18 years)): 0.338 | Proportion of patients who experienced an HAC (pediatric (<18 years)): 42.9% | # of HA events [2]: 8 | N with ≧1 HA events [2]: 5 | # of HA events [3]: 17 | N with ≧1 HA events [3]: 10 | # of HA events [4]: 29 | N with ≧1 HA events [4]: 15 | # of HACs [5]: 25 | Subjects with 1 or more HACs [5]: 15 | 12-month incidence of HAC (white): 0.564 | Proportion of patients who experienced an HAC (white): 28.4%
